Experimental data taken from patent US10781185B2, “Heterocyclic compounds for the inhibition of PASK” (BioEnergenix LLC, priority 2009, dated 2020).

Tests used:
[1] = molecular target: PASK (Homo sapiens (Human), UniProt Q96RG2); assay: PAS Kinase Luminescence Assay (Kinase-Glo); format: biochemical; conditions: purified hPASK from insect cells, read-out: IC50 Kinase Domain
Experimental: Biochemical Assay for hPASK Activity
PAS Kinase Luminescence Assay
One assay for purified hPASK activity utilizes the Kinase-Glo Luminescent Kinase Assay (Promega), which quantifies the amount of ATP remaining in solution following kinase reaction. The assay is carried out in a 96-well plate format and is performed by adding a volume of Kinase-Glo Reagent (Promega, catalog # V3771) equal to the volume of solution in the well of a completed kinase reaction. Kinase-Glo reagent contains Luciferase and its substrate. After addition to a kinase reaction it allows to measure luminescence. The amount of ATP left in solution at the time of Kinase-Glo Plus addition is directly proportional to the luminescence that is measured in each well, and inversely correlated with kinase activity.
Purified hPASK from insect cells (0.02 μg) is added to a 50 μL reaction mix containing 40 mM HEPES (pH 7.0), 100 mM KCl, 5 mM MgCl2, 1 mM DTT and […] of MBP protein. Inhibitory compounds are then added and the mixture is incubated for 10 min at 25° C. before adding 5 μL of ATP (at desired concentration). The reaction is allowed to proceed at 25° C. for 1 hour before adding 50 μL of Kinase-Glo reagent. The luminescence is measured as soon as 10 minutes after Kinase-Glo reagent is added.

[2] = molecular target: PASK (UniProt # Q96RG2; human recombinant N-terminal GST tagged construct, residues 879-1323) (Homo sapiens (Human), UniProt Q96RG2); assay: PASK ATP Radiochemical Assay; format: biochemical; conditions: 33P-ATP radiochemical, Myelin Basic Protein substrate; read-out: IC50 Kinase Domain
Sequence of PASK (UniProt # Q96RG2; human recombinant N-terminal GST tagged construct, residues 879-1323) (Homo sapiens (Human), UniProt Q96RG2) (Q96RG2 879-1323, change not shown): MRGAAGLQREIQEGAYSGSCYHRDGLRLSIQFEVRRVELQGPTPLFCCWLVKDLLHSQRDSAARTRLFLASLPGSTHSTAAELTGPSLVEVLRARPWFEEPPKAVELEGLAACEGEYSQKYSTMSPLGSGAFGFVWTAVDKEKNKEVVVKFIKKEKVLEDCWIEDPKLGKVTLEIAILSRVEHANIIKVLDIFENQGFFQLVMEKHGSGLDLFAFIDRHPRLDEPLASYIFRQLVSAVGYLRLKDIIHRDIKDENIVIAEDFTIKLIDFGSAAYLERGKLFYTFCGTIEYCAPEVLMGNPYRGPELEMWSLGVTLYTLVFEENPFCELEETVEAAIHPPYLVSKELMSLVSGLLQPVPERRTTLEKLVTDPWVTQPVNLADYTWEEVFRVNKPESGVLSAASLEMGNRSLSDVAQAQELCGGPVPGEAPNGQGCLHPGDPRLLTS
Experimental: PASK ATP Radiochemical Assay
Test compounds in DMSO are then added and the mixture, followed by delivery of ^33P-ATP (specific activity 0.01 μCi/μl final) to initiate the reaction. […] The entire reaction mixture is washed through onto a P81 Phosphocellulose paper and washed three times for 10 minutes in 75 mM phosphoric acid and once in methanol prior to drying and scintillation counting.

Sequence of PASK (Homo sapiens (Human), UniProt Q96RG2) (Q96RG2 999-1251): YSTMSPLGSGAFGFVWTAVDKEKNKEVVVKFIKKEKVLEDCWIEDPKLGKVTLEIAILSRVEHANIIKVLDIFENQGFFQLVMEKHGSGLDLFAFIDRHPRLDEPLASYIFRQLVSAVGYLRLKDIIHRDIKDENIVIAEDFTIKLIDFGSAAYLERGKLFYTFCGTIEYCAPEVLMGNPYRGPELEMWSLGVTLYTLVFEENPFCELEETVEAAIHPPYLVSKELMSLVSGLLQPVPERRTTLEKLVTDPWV

Structure (SMILES)	IC50 [1]	IC50 [2]
COc1ccc(C2CCN(c3nc4cc(C(=O)O)ccc4nc3-c3ccccc3)CC2)cc1 [Example 11, 3-(4-(4-Methoxyphenyl)piperidin-1-yl)-2-phenylquinoxaline-6-carboxylic acid]	< 10 µM	
O=C(O)c1ccc2nc(-c3ccccc3)c(N3CCOCC3)nc2c1 [Example 16, 3-Morpholino-2-phenylquinoxaline-6-carboxylic acid]	< 10 µM	< 10 µM
CN1CCCN(c2nc3cc(C(=O)O)ccc3nc2-c2ccccc2)CC1 [Example 17, 3-(4-Methyl-1,4-diazepan-1-yl)-2-phenylquinoxaline-6-carboxylic acid]	< 10 µM	< 10 µM
O=C(O)c1ccc2nc(-c3ccccc3)c(N3CCN(c4ncccn4)CC3)nc2c1 [Example 19, 2-Phenyl-3-(4-(pyrimidin-2-yl)piperazin-1-yl)quinoxaline-6-carboxylic acid]	< 10 µM	< 10 µM
O=C(O)c1ccc2nc(-c3ccccc3)c(N3CCN(c4ccc(C(F)(F)F)cn4)CC3)nc2c1 [Example 20, 2-Phenyl-3-(4-(5-(trifluoromethyl)pyridin-2-yl)piperazin-1-yl)quinoxaline-6-carboxylic acid]	< 10 µM	< 10 µM
O=C(O)c1ccc2nc(-c3ccccc3)c(N3CCN(c4ccc5ccccc5n4)CC3)nc2c1 [Example 21, 2-phenyl-3-(4-(quinolin-2-yl)piperazin-1-yl)quinoxaline-6-carboxylic acid]	< 10 µM	< 10 µM
O=C(O)c1ccc2nc(N3CCCCCC3)c(-c3ccccc3)nc2c1 [Example 22, 2-(Azepan-1-yl)-3-phenylquinoxaline-6-carboxylic acid]	> 10 µM	
O=C(O)c1ccc2nc(N3CCCCC3)c(-c3ccccc3)nc2c1 [Example 23, 3-Phenyl-2-(piperidin-1-yl)quinoxaline-6-carboxylic acid]	< 10 µM	
O=C(O)c1ccc2nc(N3CCC(c4ccc(Cl)cc4)CC3)c(-c3ccc(F)cc3)nc2c1 [Example 24, 2-(4-(4-Chlorophenyl)piperidin-1-yl)-3-(4-fluorophenyl)quinoxaline-6-carboxylic acid]	< 10 µM	< 10 µM
O=C(O)c1ccc2nc(N3CCC(c4cccc(Cl)c4)CC3)c(-c3ccc(F)cc3)nc2c1 [Example 25, 2-(4-(3-Chlorophenyl)piperidin-1-yl)-3-(4-fluorophenyl)quinoxaline-6-carboxylic acid]	< 10 µM	
COc1ccc(C2CCN(c3nc4ccc(C(=O)O)cc4nc3-c3ccc(F)cc3)CC2)cc1 [Example 26, 3-(4-Fluorophenyl)-2-(4-(4-methoxyphenyl)piperidin-1-yl)quinoxaline-6-carboxylic acid]	< 10 µM	< 10 µM
O=C(O)c1ccc2nc(N3CCN(c4ccccn4)CC3)c(-c3ccc(F)cc3)nc2c1 [Example 27, 3-(4-Fluorophenyl)-2-(4-(pyridin-2-yl)piperazin-1-yl)quinoxaline-6-carboxylic acid]	< 10 µM	
O=C(O)c1ccc2nc(N3CCC(c4ccc(C(F)(F)F)cc4)CC3)c(-c3ccc(F)cc3)nc2c1 [Example 29, 3-(4-Fluorophenyl)-2-(4-(4-(trifluoromethyl)phenyl)piperidin-1-yl)quinoxaline-6-carboxylic acid]	< 10 µM	> 10 µM
O=C(O)c1ccc2nc(N3CCC(c4ccccc4)CC3)c(N3CCC(c4ccccc4)CC3)nc2c1 [Example 30, 2,3-Bis(4-phenylpiperidin-1-yl)quinoxaline-6-carboxylic acid]	< 10 µM	< 10 µM
COc1ccc(-c2nc3ccc(-c4nnn[nH]4)cc3nc2-c2ccc(OC)cc2)cc1 [Example 31, 2,3-Bis(4-methoxyphenyl)-6-(1H-tetrazol-5-yl)quinoxaline]	< 10 µM	< 10 µM
